Results published in US7189741B2, “Indolylpiperidine derivatives as antihistaminic and antiallergic agents” (Almirall Prodesfarma S.A., priority 2000, dated 2007).
Read-outs that look alike come from different tables or passages of the source.

Legend:
[1] = target: T1, histamine-H1 receptors (Cavia porcellus, UniProt P31389); assay: Histamine-H1 receptor binding assay ([3H]-mepyramine displacement); design: species or system guinea pig
T1 construct: performed in guinea pig cerebellum membranes as described previously; from tissue; host or cells: guinea pig cerebellum membranes
Protocol: Briefly, the membrane suspensions (160 μg/ml) were incubated at 30° C. with 0.7 nM [^3H]-mepyramine and different concentrations of the test compounds in a final volume of 250 μl. Binding reactions were terminated by filtration after 30 min of incubation and the bound radioactivity was determined. The specific binding was measured in the presence of 10 μM of promethazine. The affinity of each test compound to the receptor was determined by using at least six different concentrations run in duplicate. IC50 values were obtained by non-linear regression by use of SAS on a DEC AXP computer.

[2] = system: histamine induced skin vascular permeability; assay: Histamine-induced skin vascular permeability in rats; type: in vivo; settings: Rattus norvegicus; male Wistar rats, oral, dose of 1 mg/Kg, 4 hours after administration, vs vehicle treated group
Protocol: Male Wistar rats (180–210 g) were treated orally with the test compound or vehicle. 1, 4, 8 and 24 hours later, the rats were lightly anaesthetized with ether. The cutaneous reaction was induced by two intradermal injections of 50 μl of histamine (100 μg/ml) onto the back, followed by a intravenous injection of 3 ml/kg of Evan's Blue (5 mg/ml), both dissolved in saline. Sixty min later, the rats were killed by cervical dislocation and the back skin dissected free. The diameter (in millimeters) of the papule was measured in two directions and the area was calculated.

[3] = guinea pig cerebellum membranes, 0.7 nM [3H]-mepyramine, 30 min at 30° C., read-out: Binding to receptor H1 (IC50)

T1 sequence (P31389 whole entry): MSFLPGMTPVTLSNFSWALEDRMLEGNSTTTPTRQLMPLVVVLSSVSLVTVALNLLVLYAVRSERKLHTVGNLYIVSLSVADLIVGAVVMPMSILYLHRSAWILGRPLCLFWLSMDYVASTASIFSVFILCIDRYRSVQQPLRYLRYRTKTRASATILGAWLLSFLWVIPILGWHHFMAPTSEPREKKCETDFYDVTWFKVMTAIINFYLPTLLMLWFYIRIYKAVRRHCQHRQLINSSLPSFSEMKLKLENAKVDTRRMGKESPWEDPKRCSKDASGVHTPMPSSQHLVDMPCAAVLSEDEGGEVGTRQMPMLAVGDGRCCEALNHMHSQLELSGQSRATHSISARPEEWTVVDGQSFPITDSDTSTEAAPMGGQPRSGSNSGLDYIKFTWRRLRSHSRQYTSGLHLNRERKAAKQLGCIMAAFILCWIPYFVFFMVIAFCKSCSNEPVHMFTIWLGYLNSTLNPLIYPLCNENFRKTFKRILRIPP

| Compound | IC50 [1, 3] | inhibition in vivo at 1 mg/kg [2] | IC50 [1] |
| --- | --- | --- | --- |
| Cn1ccnc1SCCCn1cc(C2CCN(CCOc3ccccc3C(=O)O)CC2)c2ccccc21 [Example 6, 2-[2-(4-{1-[3-(1-methyl-1H-imidazol-2-ylsulfanyl)-propyl]-1H-indol-3-yl}-piperidin-1-yl)-ethoxy]-benzoic acid] | 0.463 µM | – | – |
| COc1ccc(CN2CCC(c3cn(Cc4cccs4)c4ccccc34)CC2)cc1C(=O)O [Example 73, 2-methoxy-5-[4-(1-thiophen-2-ylmethyl-1H-indol-3-yl)-piperidin-1-ylmethyl]-benzoic acid] | 0.125 µM | > 50% | – |
| COc1ccc(CN2CCC(c3cn(CCc4ccsc4)c4ccccc34)CC2)cc1C(=O)O [Example 75, 2-methoxy-5-{4-[1-(2-thiophen-3-yl-ethyl)-1H-indol-3-yl]-piperidin-1-ylmethyl}-benzoic acid] | 0.052 µM | > 50% | – |
| COc1ccc(CN2CCC(c3cn(Cc4cccs4)c4cc(F)ccc34)CC2)cc1C(=O)O [Example 82, 5-[4-(6-fluoro-1-thiophen-2-ylmethyl-1H-indol-3-yl)-piperidin-1-ylmethyl]-2-methoxy-benzoic acid] | 0.091 µM | > 50% | – |
| COc1ccc(CN2CCC(c3cn(Cc4ccco4)c4ccccc34)CC2)cc1C(=O)O [Example 85, 5-[4-(1-furan-2-ylmethyl-1H-indol-3-yl)-piperidin-1-ylmethyl]-2-methoxy-benzoic acid] | 0.101 µM | > 50% | – |
| O=C(O)c1ccccc1OCCN1CCC(c2cn(CCCC3OCCO3)c3ccccc23)CC1 [Example 21, 2-(2-{4-[1-(3-[1,3]dioxolan-2-yl-propyl)-1H-indol-3-yl]-piperidin-1-yl}-ethoxy)-benzoic acid] | 0.295 µM | – | – |
| O=C(O)c1ccccc1OCCN1CCC(c2cn(Cc3ccco3)c3cc(F)ccc23)CC1 [Example 22, 2-{2-[4-(6-fluoro-1-furan-2-ylmethyl-1H-indol-3-yl)-piperidin-1-yl]-ethoxy}-benzoic acid] | – | > 50% | – |
| COc1ccc(CN2CCC(c3cn(Cc4ccc(Cl)s4)c4cc(F)ccc34)CC2)cc1C(=O)O [Example 79, 5-{4-[1-(5-chloro-thiophen-2-ylmethyl)-6-fluoro-1H-indol-3-yl]-piperidin-1-ylmethyl}-2-methoxy-benzoic acid] | 0.15 µM | > 50% | – |
| COc1ccc(CN2CCC(c3cn(Cc4ccoc4)c4cc(F)ccc34)CC2)cc1C(=O)O [Example 80, 5-[4-(6-fluoro-1-furan-3-ylmethyl-1H-indol-3-yl)-piperidin-1-ylmethyl]-2-methoxy-benzoic acid] | 0.096 µM | > 50% | – |
| O=C(O)c1cccc(CN2CCC(c3cn(Cc4cccs4)c4ccccc34)CC2)c1 [Example 25, 3-[4-(1-thiophen-2-ylmethyl-1H-indol-3-yl)-piperidin-1-ylmethyl]-benzoic acid] | 0.09 µM | – | – |
| COc1ccc(CN2CCC(c3cn(CCc4ccsc4)c4cc(F)ccc34)CC2)cc1C(=O)O [Example 78, 5-{4-[6-fluoro-1-(2-thiophen-3-yl-ethyl)-1H-indol-3-yl]-piperidin-1-ylmethyl}-2-methoxy-benzoic acid] | – | > 50% | 0.065 µM |
| O=C(O)c1ccccc1OCCN1CCC(c2cn(CC3OCCO3)c3ccccc23)CC1 [Example 1, 2-{2-[4-(1-[1,3]dioxolan-2-ylmethyl-1H-indol-3-yl)-piperidin-1-yl]-ethoxy}-benzoic acid] | 0.2 µM | – | – |
| COc1ccc(CN2CCC(c3cn(Cc4ccoc4)c4ccccc34)CC2)cc1C(=O)O [Example 86, 5-[4-(1-furan-3-ylmethyl-1H-indol-3-yl)-piperidin-1-ylmethyl]-2-methoxy-benzoic acid] | 0.155 µM | > 50% | – |
| O=C(O)c1ccccc1OCCN1CCC(c2cn(CCCOc3ccc4c(c3)OCO4)c3ccccc23)CC1 [Example 16, 2-[2-(4-{1-[3-(benzo[1,3]dioxol-5-yloxy)propyl]-1H-indol-3-yl}piperidin-1-yl)ethoxy]benzoic acid] | 0.078 µM | – | – |
| O=C(O)c1ccccc1OCCN1CCC(c2cn(CCOc3ccc4c(c3)OCO4)c3ccccc23)CC1 [Example 77, 2-[2-(4-{1-[2-(benzo[1,3]dioxol-5-yloxy)-ethyl]-1H-indol-3-yl}-piperidin-1-yl)-ethoxy]-benzoic acid] | 0.116 µM | – | – |
| O=C(O)c1ccccc1OCCN1CCC(c2cn(CCC3OCCO3)c3ccccc23)CC1 [Example 23, 2-(2-{4-[1-(2-[1,3]dioxolan-2-yl-ethyl)-1H-indol-3-yl]-piperidin-1-yl}-ethoxy)-benzoic acid] | 0.354 µM | > 50% | – |

The next lines start with results.

| IC50 [1, 3] | Compound | inhibition in vivo at 1 mg/kg [2] | IC50 [1] |
| --- | --- | --- | --- |
| 0.059 µM | O=C(O)c1ccccc1OCCN1CCC(c2cn(CCc3ccsc3)c3ccccc23)CC1 [Example 13, 2-(2-{4-[1-(2-thiophen-3-yl-ethyl)-1H-indol-3-yl]-piperidin-1-yl}-ethoxy)-benzoic acid] | – | – |
| 0.051 µM | COc1ccc2c(c1)c(C1CCN(CCOc3ccccc3C(=O)O)CC1)cn2CCc1ccsc1 [Example 88, 2-(2-{4-[5-methoxy-1-(2-thiophen-3-yl-ethyl)-1H-indol-3-yl]-piperidin-1-yl}-ethoxy)-benzoic acid] | – | – |
| 0.12 µM | O=C(O)c1ccccc1OCCN1CCC(c2cn(Cc3ccc(Cl)s3)c3ccccc23)CC1 [Example 19, 2-(2-{4-[1-(5-chloro-thiophen-2-ylmethyl)-1H-indol-3-yl]-piperidin-1-yl}-ethoxy)-benzoic acid] | – | – |
| 0.031 µM | O=C(O)c1ccccc1OCCN1CCC(c2cn(Cc3ccoc3)c3cc(F)ccc23)CC1 [Example 112, 2-{2-[4-(6-fluoro-1-furan-3-ylmethyl-1H-indol-3-yl)-piperidin-1-yl]-ethoxy}-benzoic acid] | – | – |
| 0.107 µM | O=C(O)c1cccc(CN2CCC(c3cn(Cc4ccco4)c4cc(F)ccc34)CC2)c1 [Example 96, 3-[4-(6-fluoro-1-furan-2-ylmethyl-1H-indol-3-yl)-piperidin-1-ylmethyl]-benzoic acid] | – | – |
| 0.051 µM | O=C(O)c1ccccc1OCCN1CCC(c2cn(CCC3OCCO3)c3cc(F)ccc23)CC1 [Example 24, 2-(2-{4-[1-(2-[1,3]dioxolan-2-yl-ethyl)-6-fluoro-1H-indol-3-yl]-piperidin-1-yl}-ethoxy)-benzoic acid] | > 50% | – |
| 0.023 µM | O=C(O)c1ccccc1OCCN1CCC(c2cn(CCc3ccsc3)c3cc(F)ccc23)CC1 [Example 110, 2-(2-{4-[6-fluoro-1-(2-thiophen-3-yl-ethyl)-1H-indol-3-yl]-piperidin-1-yl}-ethoxy)-benzoic acid] | – | – |
| 0.205 µM | O=C(O)c1cccc(CN2CCC(c3cn(CCC4OCCO4)c4ccccc34)CC2)c1 [Example 28, 3-{4-[1-(2-[1,3]dioxolan-2-yl-ethyl)-1H-indol-3-yl]-piperidin-1-ylmethyl}-benzoic acid] | – | – |
| 0.155 µM | O=C(O)c1cc(CN2CCC(c3cn(CCCOc4ccc5c(c4)OCO5)c4ccccc34)CC2)ccc1F [Example 50, 5-(4-{1-[3-(benzo[1,3]dioxol-5-yloxy)-propyl]-1H-indol-3-yl}-piperidin-1-ylmethyl)-2-fluoro-benzoic acid] | – | – |
| 0.267 µM | O=C(O)c1ccccc1OCCN1CCC(c2cn(Cc3ccncc3)c3ccccc23)CC1 [Example 3, 2-{2-[4-(1-pyridin-4-ylmethyl-1H-indol-3-yl)-piperidin-1-yl]-ethoxy}-benzoic acid] | – | – |
| 0.135 µM | COc1ccc(CN2CCC(c3cn(CCc4cccs4)c4cc(F)ccc34)CC2)cc1C(=O)O [Example 69, 5-{4-[6-fluoro-1-(2-thiophen-2-yl-ethyl)-1H-indol-3-yl]-piperidin-1-ylmethyl}-2-methoxy-benzoic acid] | – | – |
| 0.043 µM | O=C(O)c1ccccc1OCCN1CCC(c2cn(CCc3cccs3)c3ccccc23)CC1 [Example 12, 2-(2-{4-[1-(2-thiophen-2-yl-ethyl)-1H-indol-3-yl]-piperidin-1-yl}-ethoxy)-benzoic acid] | – | – |
| 0.098 µM | O=C(O)c1ccccc1OCCN1CCC(c2cn(Cc3ccco3)c3ccccc23)CC1 [Example 9, 2-{2-[4-(1-furan-2-ylmethyl-1H-indol-3-yl)-piperidin-1-yl]-ethoxy}-benzoic acid] | – | – |
| 0.4 µM | O=C(O)c1ccccc1OCCN1CCC(c2cn(Cc3ccsc3)c3ccccc23)CC1 [Example 11, 2-{2-[4-(1-thiophen-3-ylmethyl-1H-indol-3-yl)-piperidin-1-yl]-ethoxy}-benzoic acid] | – | – |
